Measurements published in publication PMC10132233 (Journal of Enzyme Inhibition and Medicinal Chemistry, 2023).

Tests used:
[1] = system: PC3 prostate carcinoma cell line; assay: MTT cytotoxicity assay, PC3; assay type: cell-based; settings: Homo sapiens, 24 h
Description: Accordingly, we aimed to investigate the cytotoxic potential of this new series against prostate carcinoma cell lines. […] The potent nanomolar cell-based activity of this series of compounds over the tested prostate carcinoma cell line could be attributed to other possible targets in addition to EGFR and HER2 receptors. The presence of the 2-nitroimidazole moiety in the chemical structure of compounds 9a–h could develop possible covalent bonds between the nitroimidazole moiety and some cellular proteins.
Prostate cancer cell lines (PC3 and 22RV1) of American Type Culture Collection (ATCC) were obtained from Korean Cell Center (KCL). PC3 and 22RV1 cell lines were cultured in Roswell Park Memorial Institute Medium (RPMI) 1640 and Dulbecco’s modified Eagle’s medium (DMEM) (GenDepot, Barker, TX) supplemented with 1% penicillin–streptomycin and 10% foetal bovine serum (FBS). The cells were maintained at 37 °C in a 5% CO2 with a 95% humid atmosphere.
To further analyse the intracellular cytotoxicity effect of the as-synthesised compounds, MTT assay was performed. Moreover, the experiments were divided into subcategories. In each group, cancer cells were first seeded in 96-well plates (4 × 10^4 cells per well) and then incubated for 24 h at 37 °C in a 5% CO2-containing atmosphere. Subsequently, the medium from the culture plate was removed, and 100 µL of RPMI media containing different concentrations of compounds (0.01, 0.005, 0.0025, 0.00125, and 0.000625 µM) were then added into the cell lines in each well and incubated for 24 h in a 5% CO2 humidified incubator at 37 °C. Afterwards, MTT solution (150 μL, 1 mg/mL) was added to each well, replacing the media-containing compounds. After 4 h of incubation, the MTT reagent was removed, and 200 μL of DMSO was then added to dissolve the formazan crystals, and colour intensity was measured at a wavelength of 540 nm using a BioTek Synergy H1 instrument (BioTek, Winooski, VT). IC50 was calculated according to the equation of Boltzmann sigmoidal concentration–response curve using Graph Pad Prism 5 (La Jolla, CA).

[2] = biological target: T1, cyclin-dependent kinase 2 (CDK2) (Homo sapiens, UniProt P24941); assay: Small kinase panel, CDK2; assay type: biochemical; settings: read-out: % kinase inhibition (relative to DMSO control) CDK2
T1 construct: purchased Reaction Biology Co. (Malvern, PA)
Description: (§1) Enzyme inhibitory assays were carried out as described in our previous reports in the literature. […] The HotSpot assay platform includes specific kinase/substrate pairs and required cofactors. The base reaction buffer consisted of 20 mM Hepes (pH 7.5), 10 mM MgCl2, 1 mM EGTA, 0.02% Brij35, 0.02 mg/mL BSA, 0.1 mM Na3VO4, 2 mM DTT, and 1% DMSO. The tested compounds were dissolved in 100% DMSO to a specific concentration, and serial dilution was conducted. The reaction mixture containing the tested compound and 33P-ATP was incubated at room temperature for 2 h, and radioactivity was detected using the filter-binding method.

[3] = biological target: T2, p38α mitogen-activated protein kinase (MAPK14) (Homo sapiens, UniProt Q16539); assay: Small kinase panel, MAPK14; assay type: biochemical; settings: read-out: % kinase inhibition (relative to DMSO control) MAPK14
T2 construct: purchased Reaction Biology Co. (Malvern, PA)
T2 sequence (Q16539 whole entry): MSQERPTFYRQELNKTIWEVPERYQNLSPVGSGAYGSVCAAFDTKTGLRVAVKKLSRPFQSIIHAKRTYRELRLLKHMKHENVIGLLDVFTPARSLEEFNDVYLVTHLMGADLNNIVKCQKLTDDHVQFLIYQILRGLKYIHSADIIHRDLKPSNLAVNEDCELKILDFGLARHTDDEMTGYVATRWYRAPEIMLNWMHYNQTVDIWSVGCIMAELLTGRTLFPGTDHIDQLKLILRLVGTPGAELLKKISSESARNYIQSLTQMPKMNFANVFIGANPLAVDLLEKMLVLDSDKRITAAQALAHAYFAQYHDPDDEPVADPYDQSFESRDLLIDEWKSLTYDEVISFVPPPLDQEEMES
Description: as §1

PC3 cells = assay: Cell cycle analysis (PI, ADAMII LS), PC3; assay type: cell-based, human; settings: PC3, compound at its IC50, 24 h
Description: Cell cycle progression is responsible for normal cell growth and proliferation. DNA damage can result in apoptosis, which causes cell death, or DNA repair. At specific checkpoints that serve as control mechanisms to guarantee correct cell division, the state of the cells is evaluated. Checkpoints in the cell cycle include the G1 (restriction), S […], and G2/M[29]. Anticancer medications’ function is to halt cell division at these checkpoints. Treatment with potent cytotoxic (as an anticancer) agents can determine at which phase apoptosis occurs in the cell cycle. […] PC3 and 22RV1 cells were treated with compound 9f at its IC50. The comparison data in Table 6 and Figure 3 indicate that compound 9f (test 2) arrested the cell cycle of 22RV1 and PC3 cells at the G2/M phase by 62.74% and 49.43%, respectively (Figure 3). Also, the cell population in G1 and S phases decreases after treatment (test 2) compared to a negative control (test 1).
To determine the effect of the tested compound on the cell cycle distribution of PC3 and 22RV1 cell lines. Cell cycles can be analysed with checking the cell cycle change compared to the control group. Control cells without any treatment were used as a reference point for determining the cell cycle arrest phase for the test sample. Cell cycle analysis was performed using the Cell Cycle Analysis Kit (ADAMII LS, NanoEntek, Seoul, South Korea). Briefly, cancer cells were first seeded in six-well plates (0.8 × 10^6 cells per well) and then incubated for 24 h at 37 °C in a 5% CO2-containing atmosphere. […] 25 µL of sample mixture was loaded into ADAMII LS assay slide, then the slide was incubated at room temperature for 1 min in the dark and run on the ADAMII LS fluorescence cell analyser. Cell cycle distribution was calculated using ADAMII LS software (ADAMII LS, NanoEntek, Seoul, South Korea).

Compound: COc1cc2ncnc(Nc3ccc(Oc4cccc(C(F)(F)F)c4)c(Cl)c3)c2cc1OCCCCn1ccnc1[N+](=O)[O-] [Compound 9f, N-(3-Chloro-4-(3-(trifluoromethyl)phenoxy)phenyl)-7-methoxy-6-(4-(2-nitro-1H-imidazol-1-yl)butoxy)quinazolin-4-amine]
- IC50 [1]: 1 nM
- inhibition at 10 µM [2]: 0.8%
- inhibition at 10 µM [3]: 24.3%
- G0/G1 phase Percent (PC3 cells): 7.22%
- G2/M phase Percent (PC3 cells): 49.43%
- S phase Percent (PC3 cells): 28.14%
